Drawing on ChEMBL document CHEMBL2363022, “Malaria Box Schistosomiasis Screening Data” (2013), this text covers Toxicity and Motility for 21 compounds.

Assay type in all cases: functional
In assay [1] the test system is Schistosoma mansoni. Further details: scale not given here.
Assay [2] has as its system Schistosoma mansoni. Also noted: scale not given here. This is another data set of the same source.
The subject of assay [3] is Schistosoma mansoni. Also noted: scale not given here. This is another data set of the same source.
Assay [4] relates to Schistosoma mansoni. The experiment in a line: MMV: Toxicity @ 5 uM to 4-5 Schistosoma mansoni adult males after 24 h on a scale of 0 (none) - 4 (most). Includes short descriptors of effects as judged visually (PMID:19597541). Only those Malaria box 'drug-like' cpds yielding the most severe phenotypes vs. somules were tested. Caffrey group UCSF.
In assay [5] the test system is Schistosoma mansoni. The experiment in a line: MMV: Toxicity @ 5 uM to 4-5 Schistosoma mansoni adult males after 48 h on a scale of 0 (none) - 4 (most). Includes short descriptors of effects as judged visually (PMID:19597541). Only those Malaria box 'drug-like' cpds yielding the most severe phenotypes vs. somules were tested. Caffrey group UCSF.
Assay [6] concerns Schistosoma mansoni. The experiment in a line: MMV: Motility assay. Percent change (relative to DMSO controls) @ 5 uM of movement of 4-5 Schistosoma mansoni adult males after 48 h as measured by the Consensus Voting Luminance Difference algorithm available on WormAssay (PMID:22303493). Occasional incongruence ocurrs between the motility scores and the visually adjudicated 'toxicity scores'. In these cases the 'toxicity score' should be prioritized. Only those Malaria box 'Drug-like' cpds yielding the most severe phenotypes vs. somules were tested. Caffrey group UCSF.

The test system of assay [7] is Schistosoma mansoni. In words: MMV: Toxicity @ 5 uM to 4-5 Schistosoma mansoni adult males after 72 h on a scale of 0 (none) - 4 (most). Includes short descriptors of effects as judged visually (PMID:19597541). Only those Malaria box 'drug-like' cpds yielding the most severe phenotypes vs. somules were tested. Caffrey group UCSF.
Assay [8] has as its system Schistosoma mansoni. The experiment in a line: MMV: Motility assay. Percent change (relative to DMSO controls) @ 5 uM of movement of 4-5 Schistosoma mansoni adult males after 24 h as measured by the Consensus Voting Luminance Difference algorithm available on WormAssay (PMID:22303493). Occasional incongruence ocurrs between the motility scores and the visually adjudicated 'toxicity scores'. In these cases the 'toxicity score' should be prioritized. Only those Malaria box 'Drug-like' cpds yielding the most severe phenotypes vs. somules were tested. Caffrey group UCSF.

Assay [9] concerns Schistosoma mansoni. In words: MMV: Motility assay. Percent change (relative to DMSO controls) @ 5 uM of movement of 4-5 Schistosoma mansoni adult males after 72 h as measured by the Consensus Voting Luminance Difference algorithm available on WormAssay (PMID:22303493). Occasional incongruence ocurrs between the motility scores and the visually adjudicated 'toxicity scores'. In these cases the 'toxicity score' should be prioritized. Only those Malaria box 'Drug-like' cpds yielding the most severe phenotypes vs. somules were tested. Caffrey group UCSF.

With `CC(C)(C)CC(C)(C)NCC(O)COc1ccc(Cl)cc1Cl` (stereo not drawn), the Toxicity in assay [1] was determined as 0; in assay [2] it was 4; in assay [3], 4; in [4] it was 0; in assay [5] it was 1. This compound returned a Motility in assay [6] of 53.
On to `OC(CNC1CCCC1)Cn1c2ccccc2c2ccccc21` (stereo not drawn), for which the Toxicity is recorded as 1 in [1]; 4 in [2]; 4 in [3]; 0 in assay [4]; 0 in assay [5]; 0 in assay [7]. Also, the Motility result in assay [8] is “No effect”; in assay [6], 83; in [9], “No effect”.
On to `Cl.N=c1n(CCN2CCCCC2)c2ccccc2n1CC(O)c1cccc(Br)c1` (stereo not drawn), for which the Toxicity in assay [1] worked out at 2; in [2] it was 2; in [3], 4; in assay [4], 0; in assay [5] it was 0; in assay [7] it was 0. For the same compound, the Motility in assay [8] was 92.2; in [6] it was 74.8; in [9] it was 114.5.
As to `Cl.OC(CNCc1ccccc1)Cn1c2ccccc2c2ccccc21` (stereo not drawn), the Toxicity in assay [1] was determined as 4; in assay [2], 4; in assay [3] it was 4; in assay [4] it was 0; in assay [5] it was 0; in assay [7], 0. Also, the values for the Motility in [8], in [6] and in [9] were 38.1, 49.4 and “No effect”, respectively.
Consider `Oc1ccccc1CN1CCC2(CCCN(Cc3ccccc3F)C2)C1` (stereo not drawn), for which the Toxicity in assay [1] is 2; in assay [2], 3; in assay [3], 3; in assay [4], 1; in assay [5] it was 1; in [7] it was 1. The Motility in [8] was 175.4; in [6] it was 150.6; in [9], “overactive”.
With `O=C(Nc1nc(-c2ccccn2)cs1)c1ccccc1Br`, the Toxicity came to 2 in assay [1]; 2 in assay [2]; 4 in assay [3]; 0 in assay [4]; 0 in assay [5]; 0 in assay [7]. Moreover, the Motility in [8] worked out at 69.2; in assay [6], 80.4; in [9], 88.
Consider `COCCNCC(O)Cn1c2ccc(Cl)cc2c2cc(Cl)ccc21` (stereo not drawn), for which the Toxicity in [1] is reported as 4; in [2] it was 4; in [3], 4; in assay [4], 0; in assay [5] it was 0; in assay [7], 0. For the same compound, the Motility was 94 in assay [8], 94 in [6] and “No effect” in assay [9].
For the compound `Clc1ccc2c(N3CCCC3)ccnc2c1`, the Toxicity in [1] amounted to 1; in assay [2], 0; in assay [3], 2; in [4], 0; in assay [5] it was 0; in assay [7] it was 0. In addition, the Motility was 163 in assay [8], 131.1 in assay [6] and “No effect” in assay [9].
Turning to `COc1ccc(CNC2CCN(c3ccc(NC(=O)c4cccc(Cl)c4)cc3)CC2)cc1OC`, the Toxicity stood at 2 in assay [1]; 4 in [2]; 4 in assay [3]; 0 in assay [4]; 0 in [5]; 0 in assay [7]. The Motility in assay [8] is reported as 104.8; in [6] it was 45.4; in assay [9], 49.
Regarding `CN(C)CCCNCc1ccc(-c2ccc(F)c(Cl)c2)o1.Cl`, the Toxicity in assay [1] is on record as 2; in assay [2] it was 3; in [3], 3; in [4], 2; in assay [5], 2; in assay [7] it was 2. Moreover, the Motility amounted to 26.2 in [8], 62.2 in assay [6] and 65.7 in [9].
For `Cc1ccc(CN2CCC(C(=O)Nc3ccc(-c4cc5ccccc5[nH]4)cc3)CC2)o1`, the Toxicity in [1] worked out at 0; in assay [2], 4; in [3] it was 4; in assay [4] it was 0; in [5], 0; in assay [7], 0. Further, the Motility in assay [8] was 122.1; in [6], 126.5; in assay [9] it was “No effect”.
Consider `O=c1nc(C=Cc2ccc(Br)cc2)oc2ccccc12`, for which the Toxicity in assay [1] worked out at 2; in assay [2] it was 2; in assay [3], 2; in [4], 0; in [5], 0; in assay [7], 0. Moreover, the results for the Motility in [8], in [6] and in assay [9] were 132, 98.7 and “No effect”, respectively.
With `CC(C)(C)CC(C)(C)NCC(O)COc1ccc2c(c1)CCC2.Cl` (stereo not drawn), the Toxicity in assay [1] stood at 2; in [2], 2; in assay [3] it was 4; in assay [4] it was 0; in [5] it was 1; in assay [7], 1. For the same compound, the Motility is given as 146 in [8], 153 in assay [6] and “overactive” in assay [9].
As for `CCN(CC)CCNc1ncnc2c1[nH]c1ccc(Br)cc12`, the Toxicity in assay [1] is 4; in assay [2] it was 4; in assay [3], 4; in assay [4], 0; in assay [5], 0; in assay [7] it was 0. In addition, the results for the Motility entry in assay [8], in assay [6] and in assay [9] were “No effect”, 119 and “No effect”, respectively.
`COc1cc2c(cc1OC)C1=NNC(=O)C1=NC(C)(C)C2`: the Toxicity in assay [1] is on record as 0; in [2] it was 4; in assay [3], 4; in assay [4], 0; in assay [5], 0; in [7] it was 0. In addition, the Motility in [8] was 140; in assay [6] it was 120; in assay [9] it was “No effect”.
For the compound `CC(C)OCc1cc(CN2CCN(c3cccc(Cl)c3)CC2)c(O)c2ncccc12`, the Toxicity in assay [1] is 2; in [2], 3; in assay [3] it was 4; in [4] it was 2; in assay [5], 2; in assay [7], 2. The Motility is given as 27.4 in [8], 55.2 in assay [6] and 59.8 in [9].
With `Cc1cccc(-n2ncc3c(O)nc(-n4nc(C)cc4NC(=O)c4cc5ccccc5o4)nc32)c1`, the Toxicity came to 1 in assay [1]; 1 in [2]; 4 in [3]; 0 in assay [4]; 3 in [5]; 4 in assay [7]. Besides, the Motility in [8] is on record as 6; in assay [6] it was 1; in assay [9], “Slow, on sides, dark, tegument damage”.
With `CCN(CC)CCn1c(=N)n(CC(O)c2ccc(Cl)c(Cl)c2)c2ccccc21.Cl` (stereo not drawn), the Toxicity in [1] was 3; in assay [2] it was 4; in assay [3] it was 4; in assay [4] it was 0; in assay [5] it was 1; in assay [7] it was 0. For the same compound, the Motility in assay [8] is 68.1; in [6], 7.4; in assay [9], 66.9.
As to `COc1cc(OC)cc(N2C(=O)N(Cc3ccc(C(C)(C)C)cc3)c3ccccc3S2(=O)=O)c1`, the Toxicity in assay [1], in assay [2] and in [3] was 0 in each case.
Turning to `COc1ccc(-n2ccnc2SCC(=O)Nc2cc(C)ccc2C)c(OC)c1`, the Toxicity in assay [1], in [2] and in assay [3] was 1 in each case.
For `COc1ccccc1N1C(=N)SC(=Cc2ccc(OCc3ccccc3F)cc2)C1=O`, the Toxicity in assay [1], in assay [2] and in [3] was 0 throughout.
